Read-outs that look alike come from different tables or passages of the source.
Experiments:
Botrytis cinerea = test: Activity against the gray mold pathogen Botrytis cinerea in the microtiter test (Botrci); format: cell-based; conditions: for inhibition of growth at 0.016 ppm / inhibition of growth at 0.063 ppm / inhibition of growth at 1 ppm / inhibition of growth at 4 ppm / inhibition of growth at 16 ppm / inhibition of growth at […]: Botrytis cinerea, 168 h, read-out: Observed activity; for inhibition of growth at 0.016 ppm: conc 0.016 ppm; for inhibition of growth at […]: conc 0.25 ppm
Septoria tritici = test: Activity against the Septoria leaf spot pathogen Septoria tritici in the microtiter test (Septtr); format: cell-based; conditions: single active compound; for inhibition of growth at 0.004 ppm: conc 0.004 ppm; for inhibition of growth at 0.016 ppm: conc 0.016 ppm; for inhibition of growth at 0.063 ppm: conc 0.063 ppm
Fusarium culmorum = test: Activity against Fusarium culmorum in the microtiter test (Fusacu); format: cell-based; conditions: single active compound; for inhibition of growth at […] / inhibition of growth at 4 ppm / inhibition of growth at 16 ppm / inhibition of growth at 1 ppm / inhibition of growth at 0.063 ppm: Fusarium culmorum, 168 h, read-out: Observed activity; for inhibition of growth at […]: 0.25 ppm
Phytophthora infestans = test: microbe, parasite or virus in culture; format: cell-based
Pyricularia oryzae = test: microbe, parasite or virus in culture; format: cell-based; conditions: for Observed activity: Pyrior, single active compound
[1] = Zymoseptoria tritici, 168 h, read-out: Observed activity
[2] = Zymoseptoria tritici, 168 h, conc 1 ppm, read-out: Observed activity
[3] = Zymoseptoria tritici, 168 h, conc 0.25 ppm, read-out: Observed activity
[4] = Pyricularia oryzae, 168 h, read-out: Observed activity
[5] = Phytophthora infestans, 168 h, read-out: Observed activity

For “1-(4-chlorophenyl)-3-(5-mercapto-[1,2,4]triazol-1-ylmethyl)-4,4-dimethylpentan-3-ol [I-9]”, the Observed activity (Botrytis cinerea; conc 4 ppm) was 23%, the Observed activity (Septoria tritici; conc 1 ppm) was 20 and the Observed activity (Septoria tritici; conc 4 ppm) was 64. For the same molecule, the Observed activity (Fusarium culmorum; 16 ppm) was 4%, the Observed activity (Phytophthora infestans; conc 16 ppm) was 52% and the Observed activity (Pyricularia oryzae; conc 16 ppm) was 57.

`Fc1ccc([C@]2(Cn3cncn3)O[C@H]2c2ccccc2Cl)cc1` (racemic) [epoxiconazole] gave an inhibition of growth at 0.016 ppm (Botrytis cinerea) of 7%, an inhibition of growth at 0.063 ppm (Botrytis cinerea; conc 0.063 ppm) of 25% and an inhibition of growth at 0.004 ppm (Septoria tritici; [1]) of 4%. The inhibition of growth at 0.016 ppm (Septoria tritici; [1]) was 47% and the inhibition of growth at […] (Fusarium culmorum) was 0%.

For `CCCCCCCCc1c(CC)nc2ncnn2c1N` [5-ethyl-6-octyl-[1,2,4]triazolo-[1,5-a]pyrimidin-7-ylamine], the inhibition of growth at 4 ppm (Fusarium culmorum; 4 ppm) was 2%.

In the case of `CCCCCCCCc1c(CC)nc2ncnn2c1N` [5-ethyl-6-octyl-[1,2,4]triazolo[1,5-a]pyrimidin-7-ylamine], the inhibition of growth at 1 ppm (Botrytis cinerea; conc 1 ppm) is reported as 6% and the inhibition of growth at 1 ppm (Septoria tritici; [2]) is reported as 0%.

For `CC1(C)CCC(Cc2ccc(Cl)cc2)C1(O)Cn1ncnc1S` (stereo not drawn) [I-4, 5-(4-chlorobenzyl)-1-(5-mercapto-[1,2,4]triazol-1-ylmethyl)-2,2-dimethylcyclopentanol], the melting point was 186 to 196 °C, the inhibition of growth at 1 ppm (Botrytis cinerea; conc 1 ppm) was 28% and the inhibition of growth at […] (Septoria tritici; [3]) was 63%. It also gave an inhibition of growth at 1 ppm (Septoria tritici; [2]) of 68%, an inhibition of growth at 16 ppm (Fusarium culmorum; 16 ppm) of 3% and an inhibition of growth at 4 ppm (Pyricularia oryzae; [4]) of 3%.

Molecule `CC1COC(Cn2ncnc2S)(c2ccc(Oc3ccc(Cl)cc3)cc2Cl)O1` (stereo not drawn) [I-5, 2-{2-[2-chloro-4-(4-chlorophenoxy)phenyl]-4-methyl-[1,3]dioxolan-2-ylmethyl}-2H-[1,2,4]triazole-3-thiol] has a melting point of 73.4 °C, an inhibition of growth at 4 ppm (Botrytis cinerea; conc 4 ppm) of 36% and an inhibition of growth at 1 ppm (Phytophthora infestans; [5]) of 8%.

`CCCCC(C#N)(Cn1ncnc1S)c1ccc(Cl)cc1` (stereo not drawn) [I-10, 2-(4-chlorophenyl)-2-(5-mercapto-[1,2,4]triazol-1-ylmethyl)hexanenitrile] showed an inhibition of growth at 1 ppm (Septoria tritici; [2]) of 2%, an inhibition of growth at 4 ppm (Phytophthora infestans; [5]) of 2% and an inhibition of growth at 16 ppm (Pyricularia oryzae; [4]) of 8%.

In the case of `CCCC(Cn1ncnc1S)c1ccc(Cl)cc1Cl` (stereo not drawn) [I-16, 2-[2-(2,4-dichlorophenyl)pentyl]-2H-[1,2,4]triazole-3-thiol], the inhibition of growth at 4 ppm (Botrytis cinerea; conc 4 ppm) is reported as 31%, the inhibition of growth at 16 ppm (Fusarium culmorum; 16 ppm) is reported as 6% and the inhibition of growth at 16 ppm (Phytophthora infestans; [5]) is reported as 47%. For the same molecule, the inhibition of growth at 1 ppm (Pyricularia oryzae; [4]) was 1%.

`CCCC1COC(Cn2ncnc2S)(c2ccc(Cl)cc2Cl)O1` (stereo not drawn) [I-17, 2-[2-(2,4-dichlorophenyl)-4-propyl-[1,3]dioxolan-2-ylmethyl]-2H-[1,2,4]triazole-3-thiol] gave an inhibition of growth at 4 ppm (Botrytis cinerea; conc 4 ppm) of 33%, an inhibition of growth at […] (Septoria tritici; [3]) of 38% and an inhibition of growth at 16 ppm (Fusarium culmorum; 16 ppm) of 7%.

With `CC1(C)CC/C(=C\c2ccc(Cl)cc2)C1(O)Cn1ncnc1S` (stereo not drawn) [I-22, 5-[1-(4-chlorophenyl)meth-(E)-ylidene]-1-(5-mercapto-[1,2,4]triazol-1-ylmethyl)-2,2-dimethylcyclopentanol] the melting point was 176.5 °C, the inhibition of growth at 16 ppm (Botrytis cinerea; conc 16 ppm) was 8% and the inhibition of growth at 16 ppm (Septoria tritici; Zymoseptoria tritici, 168 h, conc 16 ppm, read-out: Observed activity) was 22%. For the same molecule, the inhibition of growth at 1 ppm (Phytophthora infestans; [5]) was 6%.

Molecule `CC(C1CC1)C(O)(Cn1ncnc1S)c1ccc(Cl)cc1` (stereo not drawn) [I-23] has an Observed activity (Botrytis cinerea; conc 16 ppm) of 26%, an Observed activity (Septoria tritici; conc 1 ppm) of 7 and an Observed activity (Septoria tritici; conc 4 ppm) of 9.

Work on `O=C(Nc1ccccc1-c1ccc(Cl)cc1)c1cccnc1Cl` [II-24, boscalid] yielded an inhibition of growth at […] (Septoria tritici; [3]) of 59%, an inhibition of growth at 4 ppm (Fusarium culmorum; 4 ppm) of 0% and an inhibition of growth at 4 ppm (Pyricularia oryzae; [4]) of 0%.

Work on `Cn1cc(C(=O)Nc2ccccc2-c2cc(F)c(F)c(F)c2)c(C(F)F)n1` [N-(3′,4′,5′-trifluorobiphenyl-2-yl)-3-difluoromethyl-1-methyl-1H-pyrazole-4-carboxamide] yielded an inhibition of growth at 0.016 ppm (Botrytis cinerea) of 9% and an inhibition of growth at 0.004 ppm (Septoria tritici; [1]) of 4%.

`N#Cc1c(Cl)c(Cl)c(Cl)c(C#N)c1Cl` [chlorothalonil] showed an inhibition of growth at 0.016 ppm (Botrytis cinerea) of 2%, an inhibition of growth at 0.016 ppm (Septoria tritici; [1]) of 8% and an inhibition of growth at 0.016 ppm (Pyricularia oryzae; [4]) of 0%.

Molecule `CC1CN(C2CCCCCCCCCCC2)CC(C)O1` (stereo not drawn) [dodemorph] has an inhibition of growth at […] (Botrytis cinerea) of 7%, an inhibition of growth at 1 ppm (Botrytis cinerea; conc 1 ppm) of 9% and an inhibition of growth at 4 ppm (Botrytis cinerea; conc 4 ppm) of 33%. It also gave an inhibition of growth at 0.063 ppm (Septoria tritici; [1]) of 0%, an inhibition of growth at […] (Septoria tritici; [3]) of 0% and an inhibition of growth at 4 ppm (Septoria tritici; Zymoseptoria tritici, 168 h, conc 4 ppm, read-out: Observed activity) of 23%. For the same molecule, the inhibition of growth at 4 ppm (Pyricularia oryzae; [4]) was 1%.

For `CC(Cc1ccc(C(C)(C)C)cc1)CN1C[C@@H](C)O[C@@H](C)C1` (stereo partly drawn) [fenpropimorph], the inhibition of growth at 0.063 ppm (Botrytis cinerea; conc 0.063 ppm) was 16%, the inhibition of growth at […] (Botrytis cinerea) was 26% and the inhibition of growth at 0.063 ppm (Septoria tritici; [1]) was 3%. For the same molecule, the inhibition of growth at […] (Septoria tritici; [3]) was 2%, the inhibition of growth at 1 ppm (Fusarium culmorum) was 9% and the inhibition of growth at 0.063 ppm (Phytophthora infestans; [5]) was 4%. It also gave an inhibition of growth at 1 ppm (Pyricularia oryzae; [4]) of 14%.

Molecule `O=C(NCCc1ncc(C(F)(F)F)cc1Cl)c1ccccc1C(F)(F)F` [fluopyram] has an inhibition of growth at 0.016 ppm (Botrytis cinerea) of 0%, an inhibition of growth at 0.063 ppm (Botrytis cinerea; conc 0.063 ppm) of 0% and an inhibition of growth at […] (Fusarium culmorum) of 0%.

With `O=c1c2cc(F)ccc2nc(-n2cncn2)n1-c1ccc(Cl)cc1Cl` [fluquinconazole] the inhibition of growth at 4 ppm (Fusarium culmorum; 4 ppm) was 0%.

With `OC(Cn1cncn1)(c1ccc(F)cc1)c1ccccc1F` (stereo not drawn) [flutriafol] the inhibition of growth at 4 ppm (Botrytis cinerea; conc 4 ppm) was 14%, the inhibition of growth at 16 ppm (Botrytis cinerea; conc 16 ppm) was 42% and the inhibition of growth at […] (Septoria tritici; [3]) was 3%. It also gave an inhibition of growth at 16 ppm (Fusarium culmorum; 16 ppm) of 29%.

`CC(C)NC(=O)N1CC(=O)N(c2cc(Cl)cc(Cl)c2)C1=O` [iprodione] gave an inhibition of growth at 0.063 ppm (Septoria tritici; [1]) of 11%, an inhibition of growth at 1 ppm (Fusarium culmorum) of 3% and an inhibition of growth at 1 ppm (Pyricularia oryzae; [4]) of 24%.

For `CO/N=C(/C(=O)OC)c1ccccc1COc1ccccc1C` [kresoxim-methyl], the inhibition of growth at […] (Botrytis cinerea) was 3%, the inhibition of growth at 1 ppm (Botrytis cinerea; conc 1 ppm) was 17% and the inhibition of growth at 1 ppm (Phytophthora infestans; [5]) was 47%.

`COCC(=O)N(c1c(C)cccc1C)C(C)C(=O)OC` (stereo not drawn) [metalaxyl] gave an inhibition of growth at […] (Botrytis cinerea) of 1%, an inhibition of growth at 1 ppm (Botrytis cinerea; conc 1 ppm) of 5% and an inhibition of growth at 0.016 ppm (Septoria tritici; [1]) of 0%. The inhibition of growth at […] (Septoria tritici; [3]) was 0%, the inhibition of growth at 1 ppm (Phytophthora infestans; [5]) was 5% and the inhibition of growth at 1 ppm (Pyricularia oryzae; [4]) was 2%.

Work on `CC1(C)CCC(Cc2ccc(Cl)cc2)C1(O)Cn1cncn1` (stereo not drawn) [metconazole] yielded an inhibition of growth at 0.063 ppm (Botrytis cinerea; conc 0.063 ppm) of 31%, an inhibition of growth at 0.004 ppm (Septoria tritici; [1]) of 0% and an inhibition of growth at 0.016 ppm (Septoria tritici; [1]) of 23%. It also gave an inhibition of growth at 0.063 ppm (Fusarium culmorum) of 0% and an inhibition of growth at […] (Fusarium culmorum) of 37%.

Molecule `COc1cc(C)c(C(=O)c2c(OC)ccc(Br)c2C)c(OC)c1OC` [metrafenone] has an inhibition of growth at 1 ppm (Botrytis cinerea; conc 1 ppm) of 0% and an inhibition of growth at 1 ppm (Pyricularia oryzae; [4]) of 11%.

For `CNC(=O)/C(=N/OC)c1ccccc1CO/N=C(C)/C(=N/OC)C(/C)=N/OC` [orysastrobin], the Observed activity (Botrytis cinerea; conc 0.063 ppm) was 1%.

`OC(Cc1ccccc1Cl)(Cn1nc[nH]c1=S)C1(Cl)CC1` (stereo not drawn) [prothioconazole] showed an inhibition of growth at 0.016 ppm (Botrytis cinerea) of 5%, an inhibition of growth at 0.063 ppm (Botrytis cinerea; conc 0.063 ppm) of 17% and an inhibition of growth at 0.004 ppm (Septoria tritici; [1]) of 0%. For the same molecule, the inhibition of growth at […] (Fusarium culmorum) was 0%.

`COC(=O)N(OC)c1ccccc1COc1ccn(-c2ccc(Cl)cc2)n1` [pyraclostrobin] gave an inhibition of growth at […] (Septoria tritici; Zymoseptoria tritici, 168 h, conc 0.00025 ppm, read-out: Observed activity) of 5%, an inhibition of growth at 0.004 ppm (Septoria tritici; [1]) of 44% and an inhibition of growth at 0.016 ppm (Septoria tritici; [1]) of 75%. The inhibition of growth at 0.063 ppm (Fusarium culmorum) was 0%, the inhibition of growth at 0.016 ppm (Phytophthora infestans; [5]) was 13% and the inhibition of growth at 0.063 ppm (Phytophthora infestans; [5]) was 26%. It also gave an inhibition of growth at 0.004 ppm (Pyricularia oryzae; [4]) of 25% and an inhibition of growth at 0.016 ppm (Pyricularia oryzae; [4]) of 54%.

`Cc1cc(C)nc(Nc2ccccc2)n1` [pyrimethanil] gave an inhibition of growth at 0.063 ppm (Botrytis cinerea; conc 0.063 ppm) of 7%, an inhibition of growth at 1 ppm (Septoria tritici; [2]) of 0% and an inhibition of growth at 4 ppm (Fusarium culmorum; 4 ppm) of 3%.

`CC(C)(C)C(O)(CCc1ccc(Cl)cc1)Cn1cncn1` (stereo not drawn) [tebuconazole] showed an inhibition of growth at 0.063 ppm (Phytophthora infestans; [5]) of 3% and an inhibition of growth at 0.004 ppm (Pyricularia oryzae; [4]) of 4%.

Work on `COC(=O)NC(=S)Nc1ccccc1NC(=S)NC(=O)OC` [thiophanate-methyl, thiophanate methyl] yielded an inhibition of growth at 1 ppm (Phytophthora infestans; [5]) of 7% and an inhibition of growth at 1 ppm (Pyricularia oryzae; [4]) of 4%.

In the case of `CC1(C)CCC(=Cc2ccc(Cl)cc2)C1(O)Cn1cncn1` (stereo not drawn) [triticonazole], the inhibition of growth at […] (Botrytis cinerea) is reported as 29%, the inhibition of growth at 0.063 ppm (Septoria tritici; [1]) is reported as 13% and the inhibition of growth at 1 ppm (Fusarium culmorum) is reported as 17%.

In the case of mancozeb, the Observed activity (Botrytis cinerea; conc 1 ppm) is reported as 8%, the Observed activity (Septoria tritici; conc 4 ppm) is reported as 23 and the Observed activity (Fusarium culmorum; 4 ppm) is reported as 0%. For the same molecule, the Observed activity (Phytophthora infestans; conc 1 ppm) was 23% and the Observed activity (Pyricularia oryzae; conc 4 ppm) was 67.

For metiram, the Observed activity (Septoria tritici; conc 1 ppm) was 17, the Observed activity (Pyricularia oryzae; conc 1 ppm) was 6 and the Observed activity (Pyricularia oryzae; conc 16 ppm) was 36.

Reference: patent publication US20120088665A1, “FUNGICIDAL MIXTURES” (BASF SE, priority 2009, published 2012)
